Measured values: ChEMBL document CHEMBL1201862, “PubChem BioAssay data set” (2004)
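Method: 48-hour compound exposure of cells in 96-well plates, five concentrations, linear interpolation of endpoints. GI50 is the concentration that inhibits growth by half.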 The source made the active and inactive calls. Rule as the data show it: active = GI50 up to about 1.1 µM and inactive = higher.

What was measured:
Assay in all cases: growth of human tumour cells (NCI), 48 h
[1] = test system: 786-0
[2] = test system: A498
[3] = test system: A549
[4] = test system: ACHN
[5] = test system: CAKI-1
[6] = test system: CCRF-CEM
[7] = test system: COLO 205
[8] = test system: DLD-1
[9] = test system: DMS-114
[10] = test system: DMS-273
[11] = test system: EKVX
[12] = test system: HCC 2998
[13] = test system: HCT-116
[14] = test system: HL-60
[15] = test system: HOP-18
[16] = test system: HOP-92
[17] = test system: HT-29
[18] = test system: IGROV-1
[19] = test system: K562
[20] = test system: KM12
[21] = test system: LXFL 529
[22] = test system: M19-MEL
[23] = test system: MOLT-4
[24] = test system: Malme-3M
[25] = test system: NCI-H226
[26] = test system: NCI-H23
[27] = test system: NCI-H522
[28] = test system: OVCAR-3
[29] = test system: OVCAR-5
[30] = test system: OVCAR-8
[31] = test system: RPMI-8226
[32] = test system: RXF 393
[33] = test system: RXF 631
[34] = test system: SF-268
[35] = test system: SF-295
[36] = test system: SF-539
[37] = test system: SK-MEL-28
[38] = test system: SK-MEL-2
[39] = test system: SK-MEL-5
[40] = test system: SK-OV-3
[41] = test system: SN12C
[42] = test system: SNB-19
[43] = test system: SNB-75
[44] = test system: SNB-78
[45] = test system: SR
[46] = test system: SW-620
[47] = test system: TK-10
[48] = test system: U-251
[49] = test system: UACC-257
[50] = test system: UACC-62
[51] = test system: UO-31
[52] = test system: BT-549
[53] = test system: DU-145
[54] = test system: HCT-15
[55] = test system: HOP-62
[56] = test system: Hs-578T
[57] = test system: KM-20L2
[58] = test system: LOX IMVI
[59] = test system: M14
[60] = test system: MCF7
[61] = test system: MDA-MB-231
[62] = test system: MDA-MB-435
[63] = test system: MDA-N
[64] = test system: NCI-H460
[65] = test system: NCI/ADR-RES
[66] = test system: OVCAR-4
[67] = test system: PC-3
[68] = test system: T47D
[69] = test system: XF498

FC(F)(F)c1ccc(C2SCc3nc4ccccc4n32)cc1 (stereo unspecified)
GI50 [1]: > 100000 nM (inactive)
GI50 [2]: 81800 nM (inactive)
GI50 [3]: 41800 nM (inactive)
GI50 [4]: 39200 nM (inactive)
GI50 [5]: > 10000 nM (inactive)
GI50 [6]: 31400 nM (inactive)
GI50 [7]: > 100000 nM (inactive)
GI50 [8]: 7240 nM (inactive)
GI50 [9]: 7210 nM (inactive)
GI50 [10]: 33800 nM (inactive)
GI50 [11]: 29700 nM (inactive)
GI50 [12]: > 100000 nM (inactive)
GI50 [13]: 27900 nM (inactive)
GI50 [14]: 3130 nM (inactive)
GI50 [15]: > 100000 nM (inactive)
GI50 [16]: 1110 nM (active)
GI50 [17]: > 100000 nM (inactive)
GI50 [18]: 14200 nM (inactive)
GI50 [19]: 3750 nM (inactive)
GI50 [20]: 50000 nM (inactive)
GI50 [21]: 23400 nM (inactive)
GI50 [22]: 66800 nM (inactive)
GI50 [23]: 12100 nM (inactive)
GI50 [24]: > 100000 nM (inactive)
GI50 [25]: > 100000 nM (inactive)
GI50 [26]: 5890 nM (inactive)
GI50 [27]: > 10000 nM (inactive)
GI50 [28]: > 10000 nM (inactive)
GI50 [29]: 15500 nM (inactive)
GI50 [30]: > 100000 nM (inactive)
GI50 [31]: 12400 nM (inactive)
GI50 [32]: 97500 nM (inactive)
GI50 [33]: 2960 nM (inactive)
GI50 [34]: 95300 nM (inactive)
GI50 [35]: > 100000 nM (inactive)
GI50 [36]: > 100000 nM (inactive)
GI50 [37]: > 100000 nM (inactive)
GI50 [38]: > 100000 nM (inactive)
GI50 [39]: 11500 nM (inactive)
GI50 [40]: 18200 nM (inactive)
GI50 [41]: > 100000 nM (inactive)
GI50 [42]: > 100000 nM (inactive)
GI50 [43]: 60000 nM (inactive)
GI50 [44]: > 100000 nM (inactive)
GI50 [45]: 16200 nM (inactive)
GI50 [46]: > 100000 nM (inactive)
GI50 [47]: > 100000 nM (inactive)
GI50 [48]: > 100000 nM (inactive)
GI50 [49]: 6560 nM (inactive)
GI50 [50]: 26400 nM (inactive)
GI50 [51]: > 100000 nM (inactive)

CC(C)(CN1CCCCC1)C(=O)/C=C/c1ccc(/C=C/C(=O)C(C)(C)CN2CCCCC2)cc1
GI50 [1]: 446 nM (active)
GI50 [2]: 1600 nM (inactive)
GI50 [3]: 933 nM (active)
GI50 [4]: 264 nM (active)
GI50 [52]: 1700 nM (inactive)
GI50 [5]: 303 nM (active)
GI50 [6]: 46.6 nM (active)
GI50 [7]: 152 nM (active)
GI50 [8]: 142 nM (active)
GI50 [9]: 701 nM (active)
GI50 [10]: 361 nM (active)
GI50 [53]: 1940 nM (inactive)
GI50 [11]: 1710 nM (inactive)
GI50 [12]: 350 nM (active)
GI50 [13]: 303 nM (active)
GI50 [54]: 204 nM
GI50 [14]: 116 nM (active)
GI50 [15]: 1280 nM (inactive)
GI50 [55]: 946 nM (active)
GI50 [16]: 333 nM (active)
GI50 [17]: 198 nM (active)
GI50 [56]: 420 nM (active)
GI50 [18]: 505 nM (active)
GI50 [19]: 103 nM (active)
GI50 [57]: 644 nM (active)
GI50 [20]: 434 nM (active)
GI50 [58]: 268 nM (active)
GI50 [21]: 262 nM (active)
GI50 [59]: 908 nM (active)
GI50 [22]: 982 nM (active)
GI50 [60]: 247 nM (active)
GI50 [61]: 196 nM (active)
GI50 [62]: 421 nM (active)
GI50 [63]: 177 nM (active)
GI50 [23]: 110 nM (active)
GI50 [24]: 871 nM (active)
GI50 [25]: 1840 nM (inactive)
GI50 [26]: 711 nM (active)
GI50 [64]: 684 nM (active)
GI50 [27]: 45.4 nM (active)
GI50 [65]: 393 nM (active)
GI50 [28]: 369 nM (active)
GI50 [66]: 368 nM (active)
GI50 [29]: 726 nM (active)
GI50 [30]: 1020 nM (active)
GI50 [67]: 273 nM (active)
GI50 [31]: 193 nM (active)
GI50 [32]: 280 nM (active)
GI50 [34]: 413 nM (active)
GI50 [35]: 661 nM (active)
GI50 [36]: 538 nM (active)
GI50 [37]: 1170 nM (inactive)
GI50 [38]: 1250 nM (inactive)
GI50 [39]: 1040 nM (active)
GI50 [40]: 1570 nM (inactive)
GI50 [41]: 208 nM (active)
GI50 [42]: 1350 nM (inactive)
GI50 [43]: 673 nM (active)
GI50 [44]: 2460 nM (inactive)
GI50 [45]: 103 nM (active)
GI50 [46]: 112 nM (active)
GI50 [68]: 525 nM (active)
GI50 [47]: 1050 nM (active)
GI50 [48]: 273 nM (active)
GI50 [49]: 1050 nM (active)
GI50 [50]: 1020 nM (active)
GI50 [51]: 1140 nM (inactive)
GI50 [69]: 344 nM (active)

O=c1c2cc(Cl)ccc2n2nnc3ccc(NCCNCCO)c1c32
GI50 [1]: 741 nM (active)
GI50 [2]: 1440 nM (inactive)
GI50 [3]: 719 nM (active)
GI50 [4]: 682 nM (active)
GI50 [52]: 1790 nM (inactive)
GI50 [5]: 1830 nM (inactive)
GI50 [6]: 560 nM (active)
GI50 [7]: 977 nM (active)
GI50 [8]: 1200 nM (inactive)
GI50 [9]: 1490 nM (inactive)
GI50 [10]: 641 nM (active)
GI50 [53]: 3440 nM (inactive)
GI50 [11]: 1930 nM (inactive)
GI50 [12]: 1370 nM (inactive)
GI50 [13]: 419 nM (active)
GI50 [54]: 718 nM
GI50 [14]: 1780 nM (inactive)
GI50 [55]: 1410 nM (inactive)
GI50 [16]: 2020 nM (inactive)
GI50 [17]: 575 nM (active)
GI50 [56]: 1780 nM (inactive)
GI50 [18]: 2110 nM (inactive)
GI50 [19]: 589 nM (active)
GI50 [57]: 962 nM (active)
GI50 [20]: 1090 nM (active)
GI50 [58]: 583 nM (active)
GI50 [21]: 1090 nM (active)
GI50 [59]: 1380 nM (inactive)
GI50 [22]: 1550 nM (inactive)
GI50 [60]: 2760 nM (inactive)
GI50 [61]: 1470 nM (inactive)
GI50 [62]: 1120 nM (inactive)
GI50 [63]: 1100 nM (active)
GI50 [23]: 394 nM (active)
GI50 [24]: 2090 nM (inactive)
GI50 [25]: 2110 nM (inactive)
GI50 [26]: 1360 nM (inactive)
GI50 [64]: 378 nM (active)
GI50 [27]: 1330 nM (inactive)
GI50 [65]: 665 nM (active)
GI50 [28]: 1590 nM (inactive)
GI50 [66]: 1010 nM (active)
GI50 [29]: 1640 nM (inactive)
GI50 [30]: 614 nM (active)
GI50 [67]: 1160 nM (inactive)
GI50 [31]: 1530 nM (inactive)
GI50 [32]: 1790 nM (inactive)
GI50 [33]: 1070 nM (active)
GI50 [34]: 2740 nM (inactive)
GI50 [35]: 689 nM (active)
GI50 [36]: 1800 nM (inactive)
GI50 [37]: 1790 nM (inactive)
GI50 [38]: 2090 nM (inactive)
GI50 [39]: 1480 nM (inactive)
GI50 [40]: 2670 nM (inactive)
GI50 [41]: 731 nM (active)
GI50 [42]: 1500 nM (inactive)
GI50 [43]: 75.3 nM (active)
GI50 [44]: 2350 nM (inactive)
GI50 [45]: 641 nM (active)
GI50 [46]: 466 nM (active)
GI50 [68]: 5150 nM (inactive)
GI50 [47]: 2400 nM (inactive)
GI50 [48]: 853 nM (active)
GI50 [49]: 1780 nM (inactive)
GI50 [50]: 2310 nM (inactive)
GI50 [51]: 1170 nM (inactive)
